Drawing on publication PMC9288506, “Compounds activating VCP D1 ATPase enhance both autophagic and proteasomal neurotoxic protein clearance” (Nature Communications, 2022), this text covers inhibition for 1 compound.

Holding throughout (test): biochemical
Design in all cases: Thermo Fisher in vitro kinase panel, per cent inhibition of kinase activity at 10 uM

One experiment has as its target TGFBR1 (ALK5) (Homo sapiens, UniProt P36897). The method, then:
(§1) Kinase profiling of SMER28 and analogs SMER28 and analogs were tested at 10 µM in a panel of 123 kinases at ThermoFisher Scientific. Follow-up of selected kinases for SMER28 and analogs was also performed at ThermoFisher Scientific. Data are shown in Supplementary Data 2 and 3. […] An inhibition of PIK3C could induce autophagy, mediated by signaling through the AKT/mTOR axis[45].

The target in a further experiment is STK17A (DRAK1) (Homo sapiens, UniProt Q9UEE5). The protocol: as §1
In another experiment the target is T1, PAK7 (KIAA1264) (Homo sapiens, UniProt Q9P286).
T1 construct: gene PAK5
The method, then: as §1

For the next experiment, the target named is PIM2 (Homo sapiens, UniProt Q9P1W9). The method, then: as §1
The target in the next experiment is ERBB2 (HER2) (Homo sapiens, UniProt P04626). The method, then:
as §1

In another experiment the target is INSR (Homo sapiens, UniProt P06213). The protocol:
as §1

Another experiment addresses MARK1 (MARK) (Homo sapiens, UniProt Q9P0L2). The protocol:
as §1

Another experiment has as its target CDK2/cyclin A (Homo sapiens, UniProt P24941). The method, then: as §1
The target in experiment [1] is T2, MAPK14 (p38 alpha) Direct (Homo sapiens, UniProt Q16539).
T2 construct: Direct
The method, then: as §1

The target of another experiment is RPS6KB1 (p70S6K) (Homo sapiens, UniProt P23443). The method, then:
as §1

A further experiment addresses SYK (Homo sapiens, UniProt P43405). The protocol: as §1
For a further experiment, the target named is RPS6KA5 (MSK1) (Homo sapiens, UniProt O75582). The method, then: as §1
The next experiment concerns the target AKT2 (PKB beta) (Homo sapiens, UniProt P31751). The method, then: as §1
The target in another experiment is T3, AMPK A2/B1/G1 (Homo sapiens, UniProt P54646).
T3 construct: gene PRKAA2
The method, then: as §1

The next experiment addresses EPHA5 (Homo sapiens, UniProt P54756). The method, then:
as §1

In the next experiment the target is IRAK4 (Homo sapiens, UniProt Q9NWZ3). The protocol: as §1
For a further experiment, the target named is MAPK1 (ERK2) (Homo sapiens, UniProt P28482). The method, then: as §1
The next experiment addresses RPS6KA1 (RSK1) (Homo sapiens, UniProt Q15418). The method, then:
as §1

The next experiment addresses EGFR (ErbB1) (Homo sapiens, UniProt P00533). The protocol: as §1
For a further experiment, the target named is FER (Homo sapiens, UniProt P16591). The method, then: as §1
The target of the next experiment is AURKB (Aurora B) (Homo sapiens, UniProt Q96GD4). The protocol: as §1
The target of another experiment is RET (Homo sapiens, UniProt P07949). The method, then: as §1
A further experiment has as its target ABL1 (Homo sapiens, UniProt P00519). The protocol: as §1

Each structure is given as a SMILES string.

T3 sequence (P54646 whole entry): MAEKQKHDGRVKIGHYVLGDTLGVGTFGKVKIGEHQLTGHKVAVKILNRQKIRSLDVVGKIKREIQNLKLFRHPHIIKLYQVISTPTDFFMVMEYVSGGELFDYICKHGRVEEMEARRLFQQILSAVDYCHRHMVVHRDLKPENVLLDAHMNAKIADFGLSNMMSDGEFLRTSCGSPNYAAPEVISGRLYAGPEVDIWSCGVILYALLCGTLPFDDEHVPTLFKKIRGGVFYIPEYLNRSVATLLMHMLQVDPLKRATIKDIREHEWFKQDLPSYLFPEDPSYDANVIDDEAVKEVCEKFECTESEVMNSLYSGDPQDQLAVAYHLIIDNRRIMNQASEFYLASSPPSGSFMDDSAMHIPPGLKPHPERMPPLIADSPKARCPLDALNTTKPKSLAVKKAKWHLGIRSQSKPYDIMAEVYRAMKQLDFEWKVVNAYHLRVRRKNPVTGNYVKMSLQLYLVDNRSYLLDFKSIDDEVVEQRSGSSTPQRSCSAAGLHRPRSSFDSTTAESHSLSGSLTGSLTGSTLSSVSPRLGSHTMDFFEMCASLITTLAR
T3 sequence (P54619 whole entry partner): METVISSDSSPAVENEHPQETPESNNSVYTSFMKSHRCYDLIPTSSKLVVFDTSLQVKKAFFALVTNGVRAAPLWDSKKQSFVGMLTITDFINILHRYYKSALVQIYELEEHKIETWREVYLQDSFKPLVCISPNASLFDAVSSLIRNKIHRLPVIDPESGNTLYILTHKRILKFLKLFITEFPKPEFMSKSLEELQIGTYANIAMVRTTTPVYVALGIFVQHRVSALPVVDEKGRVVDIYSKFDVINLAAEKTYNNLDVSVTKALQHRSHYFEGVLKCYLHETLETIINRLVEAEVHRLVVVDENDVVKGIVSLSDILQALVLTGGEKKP
T3 sequence (Q9Y478 whole entry partner): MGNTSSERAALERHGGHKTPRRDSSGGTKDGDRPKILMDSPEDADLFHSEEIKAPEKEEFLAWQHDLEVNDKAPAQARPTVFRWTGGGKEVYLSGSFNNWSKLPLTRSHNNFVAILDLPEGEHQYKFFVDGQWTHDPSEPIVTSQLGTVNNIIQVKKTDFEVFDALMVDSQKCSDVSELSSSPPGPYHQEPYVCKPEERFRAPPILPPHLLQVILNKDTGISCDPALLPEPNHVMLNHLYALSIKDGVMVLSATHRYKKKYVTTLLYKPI
Sequence of MARK1 (MARK) (Q9P0L2 whole entry): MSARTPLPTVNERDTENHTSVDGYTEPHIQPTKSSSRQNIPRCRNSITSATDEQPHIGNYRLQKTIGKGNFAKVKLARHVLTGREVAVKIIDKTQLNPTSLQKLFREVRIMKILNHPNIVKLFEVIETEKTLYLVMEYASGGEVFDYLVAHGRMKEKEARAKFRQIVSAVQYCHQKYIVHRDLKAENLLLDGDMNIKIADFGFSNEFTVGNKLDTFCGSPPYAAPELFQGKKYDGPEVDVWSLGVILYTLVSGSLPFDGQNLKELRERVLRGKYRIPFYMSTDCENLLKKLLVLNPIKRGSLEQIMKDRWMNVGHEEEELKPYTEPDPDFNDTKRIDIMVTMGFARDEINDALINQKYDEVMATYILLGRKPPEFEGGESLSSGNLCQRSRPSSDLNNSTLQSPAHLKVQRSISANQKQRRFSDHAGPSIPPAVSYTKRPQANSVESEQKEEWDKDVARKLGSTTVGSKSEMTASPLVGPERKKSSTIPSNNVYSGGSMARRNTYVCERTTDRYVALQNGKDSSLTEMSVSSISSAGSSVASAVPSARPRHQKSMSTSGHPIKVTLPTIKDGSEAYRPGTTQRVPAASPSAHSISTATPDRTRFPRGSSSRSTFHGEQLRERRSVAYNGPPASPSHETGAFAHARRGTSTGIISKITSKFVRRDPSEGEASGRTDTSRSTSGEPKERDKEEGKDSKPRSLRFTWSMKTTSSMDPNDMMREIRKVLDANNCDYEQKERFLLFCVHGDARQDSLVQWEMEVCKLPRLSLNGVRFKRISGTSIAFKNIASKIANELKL
Sequence of INSR (P06213 whole entry): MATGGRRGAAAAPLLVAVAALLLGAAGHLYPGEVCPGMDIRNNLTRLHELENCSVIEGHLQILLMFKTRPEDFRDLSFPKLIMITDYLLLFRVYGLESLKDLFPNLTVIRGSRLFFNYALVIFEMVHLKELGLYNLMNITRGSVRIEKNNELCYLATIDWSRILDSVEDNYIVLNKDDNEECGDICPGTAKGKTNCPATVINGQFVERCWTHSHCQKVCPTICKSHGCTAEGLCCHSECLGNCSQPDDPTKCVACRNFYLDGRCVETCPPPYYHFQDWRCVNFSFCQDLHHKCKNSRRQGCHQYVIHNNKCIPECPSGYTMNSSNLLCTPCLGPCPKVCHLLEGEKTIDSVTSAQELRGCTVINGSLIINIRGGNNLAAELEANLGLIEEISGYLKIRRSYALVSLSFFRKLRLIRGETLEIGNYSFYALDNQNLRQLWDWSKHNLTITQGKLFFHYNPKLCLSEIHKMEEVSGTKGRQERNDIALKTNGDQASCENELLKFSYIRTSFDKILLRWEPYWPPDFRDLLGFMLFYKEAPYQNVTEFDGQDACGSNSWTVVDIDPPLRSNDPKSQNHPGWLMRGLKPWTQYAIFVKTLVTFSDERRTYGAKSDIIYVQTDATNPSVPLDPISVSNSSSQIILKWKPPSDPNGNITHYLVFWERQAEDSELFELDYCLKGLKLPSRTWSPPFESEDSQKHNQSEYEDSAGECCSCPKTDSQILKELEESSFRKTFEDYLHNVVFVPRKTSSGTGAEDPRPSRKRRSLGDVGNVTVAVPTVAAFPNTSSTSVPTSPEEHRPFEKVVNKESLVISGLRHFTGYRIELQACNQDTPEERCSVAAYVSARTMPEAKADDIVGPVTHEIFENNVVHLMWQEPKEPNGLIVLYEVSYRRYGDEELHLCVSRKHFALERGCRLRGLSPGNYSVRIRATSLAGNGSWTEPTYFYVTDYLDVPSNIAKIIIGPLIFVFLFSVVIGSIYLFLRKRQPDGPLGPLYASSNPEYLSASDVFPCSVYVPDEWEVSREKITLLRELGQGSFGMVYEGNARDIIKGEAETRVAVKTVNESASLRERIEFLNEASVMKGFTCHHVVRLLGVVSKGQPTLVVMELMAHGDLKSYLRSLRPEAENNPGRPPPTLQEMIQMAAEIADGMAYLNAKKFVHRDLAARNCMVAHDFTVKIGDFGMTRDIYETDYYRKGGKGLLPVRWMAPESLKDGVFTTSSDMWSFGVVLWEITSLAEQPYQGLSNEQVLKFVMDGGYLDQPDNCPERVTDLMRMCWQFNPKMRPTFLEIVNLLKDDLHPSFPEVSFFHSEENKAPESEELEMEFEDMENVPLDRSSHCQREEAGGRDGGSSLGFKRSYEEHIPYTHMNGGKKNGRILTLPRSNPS
Sequence of FER (P16591 whole entry): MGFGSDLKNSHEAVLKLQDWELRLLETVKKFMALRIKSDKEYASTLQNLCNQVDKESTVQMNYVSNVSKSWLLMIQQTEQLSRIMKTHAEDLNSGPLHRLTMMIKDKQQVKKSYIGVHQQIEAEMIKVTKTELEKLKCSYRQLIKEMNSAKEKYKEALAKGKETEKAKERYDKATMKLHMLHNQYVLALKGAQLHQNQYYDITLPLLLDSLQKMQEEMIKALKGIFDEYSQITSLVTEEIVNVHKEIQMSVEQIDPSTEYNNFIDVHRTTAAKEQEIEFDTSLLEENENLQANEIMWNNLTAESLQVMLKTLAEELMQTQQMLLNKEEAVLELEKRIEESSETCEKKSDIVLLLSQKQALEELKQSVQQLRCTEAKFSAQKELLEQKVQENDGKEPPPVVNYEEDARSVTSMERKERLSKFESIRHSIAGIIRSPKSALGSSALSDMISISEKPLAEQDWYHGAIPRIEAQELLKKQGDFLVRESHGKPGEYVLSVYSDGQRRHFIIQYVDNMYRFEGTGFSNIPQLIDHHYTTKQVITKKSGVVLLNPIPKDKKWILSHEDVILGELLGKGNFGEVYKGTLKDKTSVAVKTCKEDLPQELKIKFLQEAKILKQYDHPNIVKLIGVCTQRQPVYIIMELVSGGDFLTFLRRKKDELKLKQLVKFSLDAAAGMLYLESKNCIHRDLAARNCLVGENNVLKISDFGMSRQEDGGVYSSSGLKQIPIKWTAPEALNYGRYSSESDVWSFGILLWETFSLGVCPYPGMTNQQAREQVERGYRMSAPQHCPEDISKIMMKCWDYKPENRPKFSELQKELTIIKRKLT
T1 sequence (Q9P286 whole entry): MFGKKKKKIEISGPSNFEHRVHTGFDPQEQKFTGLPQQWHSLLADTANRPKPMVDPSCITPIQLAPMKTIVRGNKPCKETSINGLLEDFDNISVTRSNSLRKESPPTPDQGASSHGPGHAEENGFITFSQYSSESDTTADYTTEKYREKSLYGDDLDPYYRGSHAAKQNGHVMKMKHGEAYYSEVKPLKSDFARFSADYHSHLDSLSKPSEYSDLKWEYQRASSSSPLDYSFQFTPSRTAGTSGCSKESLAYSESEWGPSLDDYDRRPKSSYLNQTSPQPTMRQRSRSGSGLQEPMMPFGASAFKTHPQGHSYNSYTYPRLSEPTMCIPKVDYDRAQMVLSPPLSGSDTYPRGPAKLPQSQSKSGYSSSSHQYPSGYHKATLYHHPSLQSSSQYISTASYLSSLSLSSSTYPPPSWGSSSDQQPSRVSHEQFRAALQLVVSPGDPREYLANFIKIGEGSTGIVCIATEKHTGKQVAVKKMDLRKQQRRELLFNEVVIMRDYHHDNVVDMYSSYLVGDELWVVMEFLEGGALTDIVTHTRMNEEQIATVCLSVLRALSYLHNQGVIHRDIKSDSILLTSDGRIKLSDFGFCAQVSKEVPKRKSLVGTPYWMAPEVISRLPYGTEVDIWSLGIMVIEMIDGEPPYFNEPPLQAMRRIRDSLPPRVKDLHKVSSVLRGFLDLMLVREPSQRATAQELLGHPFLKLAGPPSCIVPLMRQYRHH

On to `C=CCNc1ncnc2ccc(Br)cc12` [SMER28], for which the inhibition – broadly, the relative decrease from the control value, in per cent – at 10 µM at TGFBR1 (ALK5) is 6%; on STK17A (DRAK1), 34%; at PAK7 (KIAA1264), 7%; against PIM2 it was -15%; against ERBB2 (HER2) it was -1%; against INSR, -1%. In addition, the inhibition at 10 µM was 11% against MARK1 (MARK); 15% against CDK2/cyclin A; 7% in [1]; 22% at RPS6KB1 (p70S6K); 8% against SYK; -3% against RPS6KA5 (MSK1). Moreover, the inhibition at 10 µM on AKT2 (PKB beta) was -8%; at AMPK A2/B1/G1 it was 12%; against EPHA5, 7%; against IRAK4 it was 68%; against MAPK1 (ERK2), -2%; at RPS6KA1 (RSK1), 21%. Also, the inhibition at 10 µM against EGFR (ErbB1) amounted to 12%; on FER, 16%; against AURKB (Aurora B), 18%; against RET, 25%; at ABL1, 11%.
